# From ChEMBL document CHEMBL5441456, “ASAP - SARS-CoV-2 nsp3 macrodomain dose response” (2024)
# Where “and” joins values, the source holds several entries; their conditions need not be identical. Equal entries are not always repeated.
# Target: T1, Replicase polyprotein 1ab (Severe acute respiratory syndrome coronavirus 2, UniProt P0DTD1)
# Experiment: Functional biochemical assay to identify treatments for viral infectious disease that targets SARS-COV-2 nsp3 macrodomain, whereby the mechanism of action displaces an ADP-Ribose modified peptide from the binding site. Utilizing a time-resolved fluorescence method to measure binding by reading the emitted fluorescence intensity in two wavelengths.
row,Structure (SMILES),IC50
1,Cn1ncc(-c2cc3c(N[C@@H](c4ccc5c(n4)OCCO5)C(C)(C)C)ncnc3[nH]2)c1C#N,46 nM and 30 nM (2×) and 20 nM
2,Cc1nn(C)cc1-c1cc2c(N[C@H](c3ccc4c(c3)S(=O)(=O)CCC4)C(C)C)ncnc2[nH]1,28 nM (3×) and 14 nM and 32 nM and 13 nM and 24 nM and 36 nM and 12 nM and 11 nM
3,CC(C)[C@@H](Nc1ncnc2[nH]c(C(=O)N[C@@H]3CCN(C)C3)cc12)c1ccc2c(c1)S(=O)(=O)CCC2,65 nM and 66 nM and 72 nM and 58 nM
4,COc1ccc([C@H](Cc2nnn[nH]2)NC(=O)c2ncnc3[nH]ccc23)cc1,349 nM and 319 nM
5,CNCc1cc(-c2cc3c(N[C@@H](c4ccc5c(c4)S(=O)(=O)CCC5)C(C)C)ncnc3[nH]2)co1,25 nM and 41 nM and 22 nM and 19 nM (2×) and 12 nM
6,CC(C)[C@@H](Nc1ncnc2[nH]ccc12)c1ccc2c(c1)NC(=O)CO2,700 nM and 722 nM and 396 nM and 378 nM
7,C[C@H](C(=O)O)[C@@H](NC(=O)c1ncnc2[nH]ccc12)c1ccc(Br)cc1,794 nM and 622 nM and 340 nM
8,CNC(=O)Cn1cc(-c2cc3c(N[C@@H](c4ccc5c(c4)S(=O)(=O)CCC5)C(C)C)ncnc3[nH]2)cn1,35 nM and 19 nM and 30 nM and 18 nM and 16 nM and 15 nM and 10 nM
9,CC(C)[C@@H](Nc1ncnc2[nH]c(-c3cnn(C)c3C#N)cc12)c1ccc2c(n1)OCCO2,68 nM and 74 nM and 40 nM and 29 nM and 59 nM and 67 nM
10,CC(C)[C@H](Nc1ncnc2[nH]c(-c3cnn(C)c3C#N)cc12)c1ccc2c(n1)OCCO2,19300 nM and 19100 nM and 30800 nM and 19000 nM
11,CC(C)[C@H](Nc1ncnc2[nH]ccc12)c1ccc2c(c1)S(=O)(=O)CCC2,93 nM and 138 nM and 85 nM
12,CC(C)[C@@H](Nc1ncnc2[nH]c(-c3cnn(C)c3)cc12)c1ccc2c(c1)S(=O)(=O)CCC2,36 nM and 54 nM and 19 nM and 34 nM (2×) and 17 nM and 29 nM and 27 nM and 35 nM and 15 nM
13,CC(C)(C)[C@@H](Nc1ncnc2[nH]c(-c3cnn(CC(N)=O)c3)cc12)c1ccc2c(n1)OCCO2,82 nM and 64 nM and 54 nM
14,CNC(=O)c1c[nH]c2ncnc(N[C@H](c3ccc4c(c3)S(=O)(=O)CCC4)C(C)C)c12,120 nM and 110 nM
15,C[C@@H](C(=O)O)[C@H](NC(=O)c1ncnc2[nH]ccc12)c1ccc(Br)cc1,2850 nM and 982 nM and 1030 nM
16,CCNC(=O)c1cc2c(N[C@H](c3ccc4c(c3)OCCO4)C(C)C)ncnc2[nH]1,46800 nM
17,CC(C)[C@@H](Nc1cc(-n2ccnn2)ncn1)c1ccc2c(c1)S(=O)(=O)CCC2,> 99500 nM
18,CC(C)[C@H](Nc1ncncc1-n1nccn1)c1ccc2c(c1)S(=O)(=O)CCC2,> 99500 nM
19,CC(C)[C@H](Nc1ncnc2ccoc12)c1ccc2c(c1)S(=O)(=O)CCC2,> 99500 nM
20,CC(=O)Nc1ccc(-c2cc3c(N[C@@H](c4ccc5c(c4)S(=O)(=O)CCC5)C(C)C)ncnc3[nH]2)cc1F,203 nM and 120 nM and 206 nM
21,CC(C)[C@H](Nc1nc(N)ncc1Cl)c1ccc2c(c1)S(=O)(=O)CCC2,> 99500 nM

row,Structure (SMILES),IC50
1,CCNC(=O)c1cc2c(N[C@H](c3ccnc(N)c3)C(C)C)ncnc2[nH]1,1790 nM
2,CC(C)[C@@H](Nc1cc(N2CCOCC2)ncn1)c1ccc2c(c1)S(=O)(=O)CCC2,> 99500 nM
3,CCNC(=O)c1cc2c(N[C@H](c3ccc4c(n3)S(=O)(=O)CCO4)C(C)C)ncnc2[nH]1,110 nM
4,CC(C)[C@H](Nc1ncncc1-c1nc[nH]n1)c1ccc2c(c1)S(=O)(=O)CCC2,> 99500 nM
5,CC(C)[C@@H](Nc1ncnc2c1OCCO2)c1ccc2c(c1)S(=O)(=O)CCC2,> 99500 nM
6,CC(C)[C@H](Nc1ncncc1-n1ccnn1)c1ccc2c(c1)S(=O)(=O)CCC2,> 99500 nM
7,CC(C)[C@@H](Oc1ncnc2[nH]ccc12)c1ccc2c(c1)S(=O)(=O)CCC2,6050 nM
8,CC(C)[C@@H](Nc1cc(N)ncn1)c1ccc2c(c1)S(=O)(=O)CCC2,43800 nM
9,CC(C)[C@@H](Nc1ncnc(N2CCCC2)n1)c1ccc2c(c1)S(=O)(=O)CCC2,> 99500 nM
10,CC(C)[C@H](Nc1ncnc2c1CCN2)c1ccc2c(c1)S(=O)(=O)CCC2,52100 nM
11,CCNC(=O)c1cc2c(NC3(c4ccc5c(c4)S(=O)(=O)CCC5)CC3)ncnc2[nH]1,24600 nM
12,CC(C)[C@@H](NC(=O)Cc1ncnc2[nH]ccc12)c1ccc2c(c1)S(=O)(=O)CCC2,> 99500 nM
13,CC(C)[C@H](Nc1ncnc2c1NCCO2)c1ccc2c(c1)S(=O)(=O)CCC2,> 99500 nM
14,CC(C)[C@@H](Nc1ncncc1N1CCOCC1)c1ccc2c(c1)S(=O)(=O)CCC2,> 99500 nM
15,CC(C)[C@H](Nc1ncnc(N2CCCC2)n1)c1ccc2c(c1)S(=O)(=O)CCC2,> 99500 nM
16,CC(C)[C@H](Nc1ncnc(O)c1Cl)c1ccc2c(c1)S(=O)(=O)CCC2,> 99500 nM
17,CC(C)[C@@H](Nc1ncnc2[nH]c(Br)cc12)c1ccc2c(c1)S(=O)(=O)CCC2,336 nM
18,CC(C)[C@H](Nc1cc(-c2nc[nH]n2)ncn1)c1ccc2c(c1)S(=O)(=O)CCC2,> 99500 nM
19,CC(C)[C@H](Oc1cc(N)ncn1)c1ccc2c(c1)S(=O)(=O)CCC2,59800 nM
20,CCNC(=O)c1cc2c(N[C@H](c3cnc(C(=O)N(C)C)nc3)C(C)C)ncnc2[nH]1,47500 nM
21,CC(C)[C@H](Nc1ncncc1-n1cncn1)c1ccc2c(c1)S(=O)(=O)CCC2,> 99500 nM

row,Structure (SMILES),IC50
1,CC(C)[C@H](Nc1ncnc2[nH]c(-c3cnn(CC(=O)N(C)C)c3)cc12)c1ccc2c(c1)OCCO2,235 nM and 395 nM
2,CNCc1cc(-c2cc3c(N[C@H](c4ccc5c(c4)S(=O)(=O)CCO5)C(C)C)ncnc3[nH]2)co1,57 nM
3,CC(C)[C@H](Nc1ncnc(-n2cccn2)n1)c1ccc2c(c1)S(=O)(=O)CCC2,> 99500 nM
4,CC(C)[C@@H](Nc1ncnc2[nH]c(-c3cnc4n3CCC4)cc12)c1ccc2c(c1)S(=O)(=O)CCC2,51 nM and 43 nM and 65 nM and 46 nM and 52 nM
5,CC(C)[C@H](Nc1ncnc2c1CNCC2)c1ccc2c(c1)S(=O)(=O)CCC2,> 99500 nM
6,CC(C)[C@H](Nc1ncnc2c1OCCO2)c1ccc2c(c1)S(=O)(=O)CCC2,38400 nM
7,COc1ncnc(N[C@H](c2ccc3c(c2)S(=O)(=O)CCC3)C(C)C)c1F,> 99500 nM
8,CC(C)[C@H](Nc1cc(N2CCNCC2)ncn1)c1ccc2c(c1)S(=O)(=O)CCC2,> 99500 nM
9,CC(C)[C@H](Nc1ncnc2cn[nH]c12)c1ccc2c(c1)S(=O)(=O)CCC2,> 99500 nM
10,CC(C)[C@@H](Nc1ncnc2c1CCO2)c1ccc2c(c1)S(=O)(=O)CCC2,62900 nM
11,CC(C)[C@H](Nc1cc(NCC(F)(F)F)ncn1)c1ccc2c(c1)S(=O)(=O)CCC2,> 99500 nM
12,CCNC(=O)c1cc2c(N[C@H](c3ccc4c(c3)NS(=O)(=O)CO4)C(C)C)ncnc2[nH]1,29 nM and 38 nM and 37 nM
13,CC(=O)N1[C@@H]2CC[C@H]1c1c(ncnc1N[C@@H](c1ccc3c(c1)S(=O)(=O)CCC3)C(C)C)C2,> 99500 nM
14,CC(C)[C@H](Nc1cc(O)ncn1)c1ccc2c(c1)S(=O)(=O)CCC2,> 99500 nM
15,CC(C)[C@H](Nc1cc(-n2ccnn2)ncn1)c1ccc2c(c1)S(=O)(=O)CCC2,> 99500 nM
16,Cc1nc(N)c(Cl)c(N[C@H](c2ccc3c(c2)S(=O)(=O)CCC3)C(C)C)n1,> 99500 nM
17,CC(C)[C@@H](Nc1ncncc1Cl)c1ccc2c(c1)S(=O)(=O)CCC2,> 99500 nM
18,CC(C)[C@H](Nc1cc(-n2cncn2)ncn1)c1ccc2c(c1)S(=O)(=O)CCC2,> 99500 nM
19,CC(C)[C@H](Nc1ncnc(N)c1F)c1ccc2c(c1)S(=O)(=O)CCC2,> 99500 nM
20,CNc1ncnc(N[C@H](c2ccc3c(c2)S(=O)(=O)CCC3)C(C)C)c1Cl,> 99500 nM
21,CCNC(=O)c1cc2c(N[C@H](c3ccc4c(n3)S(=O)(=O)CCC4)C(C)C)ncnc2[nH]1,119 nM

row,Structure (SMILES),IC50
1,CC(C)[C@@H](Oc1cc(N)ncn1)c1ccc2c(c1)S(=O)(=O)CCC2,67400 nM
2,CC(C)[C@@H](Nc1ncnc2[nH]c(-c3cnn(C)c3)cc12)c1ccc2c(c1)S(=O)(=O)CCO2,43 nM and 51 nM
3,CC(C)[C@H](NC(=O)c1ncnc2[nH]ccc12)c1ccc2c(c1)S(=O)(=O)CCC2,> 99500 nM
4,CC(C)[C@H](Nc1ncnc2[nH]nnc12)c1ccc2c(c1)S(=O)(=O)CCC2,> 99500 nM
5,CC(C)[C@@H](Nc1cc(-n2nccn2)ncn1)c1ccc2c(c1)S(=O)(=O)CCC2,> 99500 nM
6,CC(C)[C@@H](Nc1cc(N2CCC[C@H]2C(=O)O)ncn1)c1ccc2c(c1)S(=O)(=O)CCC2,> 99500 nM
7,CC(C)[C@H](Nc1cc(-n2nccn2)ncn1)c1ccc2c(c1)S(=O)(=O)CCC2,> 99500 nM
8,CC(C)[C@H](Nc1ncnc2c1CCO2)c1ccc2c(c1)S(=O)(=O)CCC2,> 99500 nM
9,CC(C)[C@@H](Nc1ncnc2c1CNCC2)c1ccc2c(c1)S(=O)(=O)CCC2,> 99500 nM
10,CC(C)[C@@H](Nc1cc(NCC(F)(F)F)ncn1)c1ccc2c(c1)S(=O)(=O)CCC2,2240 nM
11,CC(C)[C@@H](NC(=O)c1ncnc2[nH]ccc12)c1ccc2c(c1)S(=O)(=O)CCC2,> 99500 nM
12,CC(C)[C@@H](Oc1ncnc2[nH]ccc12)c1ccc2c(c1)OCCO2,> 99500 nM
13,COc1ccc([C@H](CC(=O)O)NC(=O)c2ncnc3[nH]ccc23)cc1,1440 nM
14,CC(C)[C@@H](Nc1cc(N2CCNCC2)ncn1)c1ccc2c(c1)S(=O)(=O)CCC2,> 99500 nM
15,CC(C)[C@@H](Nc1ccncn1)c1ccc2c(c1)S(=O)(=O)CCC2,> 99500 nM
16,CC(C)[C@H](Nc1cc(N2CCOCC2)ncn1)c1ccc2c(c1)S(=O)(=O)CCC2,> 99500 nM
17,CC(C)[C@H](Nc1ncncc1N1CCNCC1)c1ccc2c(c1)S(=O)(=O)CCC2,> 99500 nM
18,CC(C)[C@H](Nc1nccc2[nH]ccc12)c1ccc2c(c1)S(=O)(=O)CCC2,> 99500 nM
19,CC(C)[C@H](Nc1ncnc2nccnc12)c1ccc2c(c1)S(=O)(=O)CCC2,> 99500 nM
20,CC(C)[C@H](Nc1ncncc1Cl)c1ccc2c(c1)S(=O)(=O)CCC2,> 99500 nM

# Target: T1, Replicase polyprotein 1ab
# Experiment: Functional biochemical assay to identify treatments for viral infectious disease that targets SARS-COV-2 nsp3 macrodomain, whereby the mechanism of action inhibits ADP-Ribose hydrolase activity. Utilizing an enzymatic assay to monitor the conversion of alpha-NAD+ to ADP-Ribose and nicotinamide. ADP-ribose was quantified by LC-MS/MS after precipitation of proteins.
row,Structure (SMILES),IC50
1,Cn1ncc(-c2cc3c(N[C@@H](c4ccc5c(n4)OCCO5)C(C)(C)C)ncnc3[nH]2)c1C#N,133 nM and 191 nM and 235 nM
2,Cc1nn(C)cc1-c1cc2c(N[C@H](c3ccc4c(c3)S(=O)(=O)CCC4)C(C)C)ncnc2[nH]1,322 nM and 241 nM and 288 nM
3,CC(C)[C@@H](Nc1ncnc2[nH]c(C(=O)N[C@@H]3CCN(C)C3)cc12)c1ccc2c(c1)S(=O)(=O)CCC2,479 nM and 316 nM and 454 nM
4,COc1ccc([C@H](Cc2nnn[nH]2)NC(=O)c2ncnc3[nH]ccc23)cc1,2340 nM and 1490 nM and 1610 nM
5,CNCc1cc(-c2cc3c(N[C@@H](c4ccc5c(c4)S(=O)(=O)CCC5)C(C)C)ncnc3[nH]2)co1,289 nM and 396 nM and 533 nM
6,CC(C)[C@@H](Nc1ncnc2[nH]ccc12)c1ccc2c(c1)NC(=O)CO2,2960 nM
7,C[C@H](C(=O)O)[C@@H](NC(=O)c1ncnc2[nH]ccc12)c1ccc(Br)cc1,1340 nM and 1900 nM and 1800 nM
8,CNC(=O)Cn1cc(-c2cc3c(N[C@@H](c4ccc5c(c4)S(=O)(=O)CCC5)C(C)C)ncnc3[nH]2)cn1,204 nM and 197 nM and 288 nM
9,CC(C)[C@@H](Nc1ncnc2[nH]c(-c3cnn(C)c3C#N)cc12)c1ccc2c(n1)OCCO2,283 nM and 156 nM and 312 nM
10,CC(C)[C@H](Nc1ncnc2[nH]c(-c3cnn(C)c3C#N)cc12)c1ccc2c(n1)OCCO2,> 4000 nM
11,CC(C)[C@H](Nc1ncnc2[nH]ccc12)c1ccc2c(c1)S(=O)(=O)CCC2,803 nM and 194 nM and 512 nM
12,CC(C)[C@@H](Nc1ncnc2[nH]c(-c3cnn(C)c3)cc12)c1ccc2c(c1)S(=O)(=O)CCC2,328 nM and 264 nM
13,CC(C)(C)[C@@H](Nc1ncnc2[nH]c(-c3cnn(CC(N)=O)c3)cc12)c1ccc2c(n1)OCCO2,203 nM
14,CNC(=O)c1c[nH]c2ncnc(N[C@H](c3ccc4c(c3)S(=O)(=O)CCC4)C(C)C)c12,246 nM
